Laboratory results from patent publication EP0597029B1, “W/O MICROEMULSIONS” (SMITHKLINE BEECHAM CORPORATION, priority 1991, dated 1993).
Like-named read-outs stand apart in the source and are kept apart here.

Columns and labels:
[1] = value in parentheses, from the CRC Handbook of Chemistry and Physics, 60th Edition; cited from earlier work
[2] = value in parentheses, from the CRC Handbook of Chemistry and Physics, 60th Edition; cited from earlier work; remark: listed apart in the source
[3] = Refractive index of microemulsions; assay type: physicochemical; details: aqueous phase = water; oil plus low HLB surfactant (3:1, 87%), high HLB surfactant (10%), aqueous (3%)
Source text: (§1) All the microemulsions had oil plus low HLB surfactant (3:1, 87%), high HLB surfactant (10%) and aqueous (3%).

[4] = Viscosity of microemulsions; assay type: physicochemical; details: aqueous phase = water; oil plus low HLB surfactant (3:1, 87%), high HLB surfactant (10%), aqueous (3%)
Source text: as §1

In the case of CCCCCCCC/C=C\CCCCCCCC(=O)O [Oleic Acid], the Viscosity [1] is listed as 25.6 centiPoise, the Refractive index [2] is listed as 1.4583 and the Refractive index [3] is listed as 1.4582. The Viscosity [4] was 23.4 centiPoise.
